What was measured:
Format in all cases: in vivo
[1] = test system: redroot pigweed (Amaranthus retroflexus, AMR); assay: Pre-emerge test, redroot pigweed; details: 250 g ai/ha, 14 days after application, rating scale 0-100 (0 no damage, 100 complete death)
Source text: (§1) A standard greenhouse herbicide activity screening system was used to evaluate the herbicidal efficacy and crop safety of these test compounds. Seven broadleaf weed species including redroot pigweed (Amaranthus retroflexus, AMR), velvetleaf (Abutilon theophrasti, ABT), sicklepod (Cassia obtusifolia, CAO), ivyleaf morningglory (Ipomoea hederacea, IPH), lambsquarters (Chenopodium album, CHA), common ragweed (Ambrosia artemisiifolia L., AML), and cocklebur (Xanthium strumariunt, XAS) were used as test species. Four grass weed species including green foxtail (Setaria viridis, SEV), barnyardgrass (Echinachloa crus-galli, ECC), johnsongrass (Sorghum halepense, SOH), and large crabgrass (Digitaria sanguinalis, DIS) were also used. In addition, four crop species, field corn (Zea mays L., var. Dekalb 535, CORN), soybean (Glycine max L., var. Pella 86, SOY), upland rice (Oryza sp., var.Tebonnet, RICE), and wheat (Triticum aestivum) were included all plants were grown in 10 cm square plastic pots which were filled with a sandy loam soil mix.
(§2) For pre-emerge tests, seeds were planted one day prior to application of the test compounds. All test compounds were dissolved in acetone and applied to the test pots in a volume of 187 l/ha. Test materials were applied at rates ranging from 8 g ai/ha to 1000 g ai/ha using a track sprayer equipped with a TJ8001E even flow flat fan spray nozzle. This application simulates a typical commercial field herbicide application.
(§3) At 14 days after application of the test materials, phytotoxicity ratings were recorded. A rating scale of 0-100 was used for both pre and post emerge tests as previously described in Research Methods in Weed Science, 2nd edition, B, Truelove, Ed., Southern Weed Science Society, Auburn University, Auburn, Ala., 1977. Briefly, “0” corresponds to no damage and “100” corresponds to complete death of all plants in the test unit. This scale was used both to determine efficacy against weed species and damage to crop species. Herbicide activity data for various compounds of this invention, which are shown by compound No. in Tables 1-3, are shown in Tables 5 and 6.

[2] = test system: velvetleaf (Abutilon theophrasti, ABT); assay: Pre-emerge test, velvetleaf; details: 250 g ai/ha, 14 days after application, rating scale 0-100 (0 no damage, 100 complete death)
Source text: as §1, §2, §3

[3] = test system: sicklepod (Cassia obtusifolia, CAO); assay: Pre-emerge test, sicklepod; details: 250 g ai/ha, 14 days after application, rating scale 0-100 (0 no damage, 100 complete death)
Source text: as §1, §2, §3

[4] = test system: ivyleaf morningglory (Ipomoea hederacea, IPH); assay: Pre-emerge test, ivyleaf morningglory; details: 250 g ai/ha, 14 days after application, rating scale 0-100 (0 no damage, 100 complete death)
Source text: as §1, §2, §3

[5] = test system: lambsquarters (Chenopodium album, CHA); assay: Pre-emerge test, lambsquarters; details: 250 g ai/ha, 14 days after application, rating scale 0-100 (0 no damage, 100 complete death)
Source text: as §1, §2, §3

[6] = test system: common ragweed (Ambrosia artemisiifolia L., AML); assay: Pre-emerge test, common ragweed; details: 250 g ai/ha, 14 days after application, rating scale 0-100 (0 no damage, 100 complete death)
Source text: as §1, §2, §3

[7] = test system: cocklebur (Xanthium strumariunt, XAS); assay: Pre-emerge test, cocklebur; details: 250 g ai/ha, 14 days after application, rating scale 0-100 (0 no damage, 100 complete death)
Source text: as §1, §2, §3

[8] = test system: green foxtail (Setaria viridis, SEV); assay: Pre-emerge test, green foxtail; details: 250 g ai/ha, 14 days after application, rating scale 0-100 (0 no damage, 100 complete death)
Source text: as §1, §2, §3

[9] = test system: barnyardgrass (Echinachloa crus-galli, ECC); assay: Pre-emerge test, barnyardgrass; details: 250 g ai/ha, 14 days after application, rating scale 0-100 (0 no damage, 100 complete death)
Source text: as §1, §2, §3

[10] = test system: johnsongrass (Sorghum halepense, SOH); assay: Pre-emerge test, johnsongrass; details: 250 g ai/ha, 14 days after application, rating scale 0-100 (0 no damage, 100 complete death)
Source text: as §1, §2, §3

[11] = test system: large crabgrass (Digitaria sanguinalis, DIS); assay: Pre-emerge test, large crabgrass; details: 250 g ai/ha, 14 days after application, rating scale 0-100 (0 no damage, 100 complete death)
Source text: as §1, §2, §3

[12] = test system: field corn (Zea mays L., var. Dekalb 535, CORN); assay: Pre-emerge test, crop damage field corn; details: pre-emerge, 250 g ai/ha, 14 days after application, rating scale 0-100 (0 no damage, 100 complete death)
Source text: as §1, §2, §3

[13] = test system: soybean (Glycine max L., var. Pella 86, SOY); assay: Pre-emerge test, crop damage soybean; details: pre-emerge, 250 g ai/ha, 14 days after application, rating scale 0-100 (0 no damage, 100 complete death)
Source text: as §1, §2, §3

[14] = test system: upland rice (Oryza sp., var.Tebonnet, RICE); assay: Pre-emerge test, crop damage upland rice; details: pre-emerge, 250 g ai/ha, 14 days after application, rating scale 0-100 (0 no damage, 100 complete death)
Source text: as §1, §2, §3

[15] = test system: wheat (Triticum aestivum); assay: Pre-emerge test, crop damage wheat; details: pre-emerge, 250 g ai/ha, 14 days after application, rating scale 0-100 (0 no damage, 100 complete death)
Source text: as §1, §2, §3

[16] = test system: redroot pigweed (Amaranthus retroflexus, AMR); assay: Post-emerge test, redroot pigweed; details: 250 g ai/ha, 14 days after application, rating scale 0-100 (0 no damage, 100 complete death)
Source text: as §1, §2
(§4) For post-emerge tests, seeds were planted 8-21 days prior to the test to allow emergence and good foliage development prior to application of the test substances. At the time of the post-emerge application, plants of all species were usually at the 2-3 leaf stage of development. In the postemerge test, a commercial non-ionic surfactant was also included (0.25% v/v) to enhance wetting of the leaf surfaces of target plants.
as §3

[17] = test system: velvetleaf (Abutilon theophrasti, ABT); assay: Post-emerge test, velvetleaf; details: 250 g ai/ha, 14 days after application, rating scale 0-100 (0 no damage, 100 complete death)
Source text: as §1, §2, §4, §3

[18] = test system: sicklepod (Cassia obtusifolia, CAO); assay: Post-emerge test, sicklepod; details: 250 g ai/ha, 14 days after application, rating scale 0-100 (0 no damage, 100 complete death)
Source text: as §1, §2, §4, §3

[19] = test system: ivyleaf morningglory (Ipomoea hederacea, IPH); assay: Post-emerge test, ivyleaf morningglory; details: 250 g ai/ha, 14 days after application, rating scale 0-100 (0 no damage, 100 complete death)
Source text: as §1, §2, §4, §3

[20] = test system: lambsquarters (Chenopodium album, CHA); assay: Post-emerge test, lambsquarters; details: 250 g ai/ha, 14 days after application, rating scale 0-100 (0 no damage, 100 complete death)
Source text: as §1, §2, §4, §3

[21] = test system: common ragweed (Ambrosia artemisiifolia L., AML); assay: Post-emerge test, common ragweed; details: 250 g ai/ha, 14 days after application, rating scale 0-100 (0 no damage, 100 complete death)
Source text: as §1, §2, §4, §3

[22] = test system: cocklebur (Xanthium strumariunt, XAS); assay: Post-emerge test, cocklebur; details: 250 g ai/ha, 14 days after application, rating scale 0-100 (0 no damage, 100 complete death)
Source text: as §1, §2, §4, §3

[23] = test system: green foxtail (Setaria viridis, SEV); assay: Post-emerge test, green foxtail; details: 250 g ai/ha, 14 days after application, rating scale 0-100 (0 no damage, 100 complete death)
Source text: as §1, §2, §4, §3

[24] = test system: barnyardgrass (Echinachloa crus-galli, ECC); assay: Post-emerge test, barnyardgrass; details: 250 g ai/ha, 14 days after application, rating scale 0-100 (0 no damage, 100 complete death)
Source text: as §1, §2, §4, §3

[25] = test system: johnsongrass (Sorghum halepense, SOH); assay: Post-emerge test, johnsongrass; details: 250 g ai/ha, 14 days after application, rating scale 0-100 (0 no damage, 100 complete death)
Source text: as §1, §2, §4, §3

[26] = test system: large crabgrass (Digitaria sanguinalis, DIS); assay: Post-emerge test, large crabgrass; details: 250 g ai/ha, 14 days after application, rating scale 0-100 (0 no damage, 100 complete death)
Source text: as §1, §2, §4, §3

[27] = test system: field corn (Zea mays L., var. Dekalb 535, CORN); assay: Post-emerge test, crop damage field corn; details: post-emerge, 250 g ai/ha, 14 days after application, rating scale 0-100 (0 no damage, 100 complete death)
Source text: as §1, §2, §4, §3

[28] = test system: soybean (Glycine max L., var. Pella 86, SOY); assay: Post-emerge test, crop damage soybean; details: post-emerge, 250 g ai/ha, 14 days after application, rating scale 0-100 (0 no damage, 100 complete death)
Source text: as §1, §2, §4, §3

[29] = test system: upland rice (Oryza sp., var.Tebonnet, RICE); assay: Post-emerge test, crop damage upland rice; details: post-emerge, 250 g ai/ha, 14 days after application, rating scale 0-100 (0 no damage, 100 complete death)
Source text: as §1, §2, §4, §3

[30] = test system: wheat (Triticum aestivum); assay: Post-emerge test, crop damage wheat; details: post-emerge, 250 g ai/ha, 14 days after application, rating scale 0-100 (0 no damage, 100 complete death)
Source text: as §1, §2, §4, §3

Row | SMILES | Pre-emerge Herbicidal Activity AMR (phytotoxicity rating) [1] | Pre-emerge Herbicidal Activity ABT (phytotoxicity rating) [2] | Pre-emerge Herbicidal Activity CAO (phytotoxicity rating) [3] | Pre-emerge Herbicidal Activity IPH (phytotoxicity rating) [4] | Pre-emerge Herbicidal Activity CHA (phytotoxicity rating) [5] | Pre-emerge Herbicidal Activity AML (phytotoxicity rating) [6] | Pre-emerge Herbicidal Activity XAS (phytotoxicity rating) [7] | Pre-emerge Herbicidal Activity SEV (phytotoxicity rating) [8] | Pre-emerge Herbicidal Activity ECC (phytotoxicity rating) [9] | Pre-emerge Herbicidal Activity SOH (phytotoxicity rating) [10] | Pre-emerge Herbicidal Activity DIS (phytotoxicity rating) [11] | Pre-emerge crop damage CORN (phytotoxicity rating) [12] | Pre-emerge crop damage SOY (phytotoxicity rating) [13] | Pre-emerge crop damage RICE (phytotoxicity rating) [14] | Pre-emerge crop damage WHEAT (phytotoxicity rating) [15] | Post-emerge Herbicidal Activity AMR (phytotoxicity rating) [16] | Post-emerge Herbicidal Activity ABT (phytotoxicity rating) [17] | Post-emerge Herbicidal Activity CAO (phytotoxicity rating) [18] | Post-emerge Herbicidal Activity IPH (phytotoxicity rating) [19] | Post-emerge Herbicidal Activity CHA (phytotoxicity rating) [20] | other results
1 | CC1Oc2cc(F)c(-c3nn(C)c(OC(F)F)c3Cl)c3c2N(C1=O)C(C)C(=O)N3 (mixture of isomers) [1-57] | 100 | 100 | 100 | 100 | 100 | 100 | 95 | 100 | 100 | 100 | 100 | 50 | 50 | 65 | 35 | 100 | 100 | 100 | 100 | 100 | Post-emerge Herbicidal Activity AML (phytotoxicity rating) [21]: 80; Post-emerge Herbicidal Activity XAS (phytotoxicity rating) [22]: 100; Post-emerge Herbicidal Activity SEV (phytotoxicity rating) [23]: 99; Post-emerge Herbicidal Activity ECC (phytotoxicity rating) [24]: 80; Post-emerge Herbicidal Activity SOH (phytotoxicity rating) [25]: 40; Post-emerge Herbicidal Activity DIS (phytotoxicity rating) [26]: 10; Post-emerge crop damage CORN (phytotoxicity rating) [27]: 10; Post-emerge crop damage SOY (phytotoxicity rating) [28]: 100; Post-emerge crop damage RICE (phytotoxicity rating) [29]: 65; Post-emerge crop damage WHEAT (phytotoxicity rating) [30]: 50
2 | Cn1c(C(F)(F)F)cc(=O)n(-c2c(F)cc3c4c2NC(=O)CN4C(=O)CO3)c1=O [1-1, 8-[1-methyl-6-(trifluoromethyl)-2,4-(1H, 3H)-pyrimidinedione-3-yl]-9-fluoro-5H-pyrazino[1,2,3-de]-1,4-benzoxazine-3,6-(2H, 7H)-dione] | 100 | 100 | 100 | 100 | 100 | 100 | 99 | 100 | 100 | 100 | 100 | 100 | 100 | 100 | 100 | 100 | 100 | 40 | 100 | 98 | Post-emerge Herbicidal Activity AML (phytotoxicity rating) [21]: 65; Post-emerge Herbicidal Activity XAS (phytotoxicity rating) [22]: 100; Post-emerge Herbicidal Activity SEV (phytotoxicity rating) [23]: 95; Post-emerge Herbicidal Activity ECC (phytotoxicity rating) [24]: 60; Post-emerge Herbicidal Activity SOH (phytotoxicity rating) [25]: 25; Post-emerge Herbicidal Activity DIS (phytotoxicity rating) [26]: 0; Post-emerge crop damage CORN (phytotoxicity rating) [27]: 0; Post-emerge crop damage SOY (phytotoxicity rating) [28]: 95; Post-emerge crop damage RICE (phytotoxicity rating) [29]: 99; Post-emerge crop damage WHEAT (phytotoxicity rating) [30]: 25
3 | CC1C(=O)Nc2c3c(cc(F)c2-n2c(=O)cc(C(F)(F)F)n(C)c2=O)OCC(=O)N31 (stereo not drawn) [1-2] | 100 | 100 | 99 | 100 | 100 | 100 | 99 | 100 | 100 | 100 | 100 | 100 | 99 | 100 | 100 | 90 | 100 | 0 | 90 | 80 | Post-emerge Herbicidal Activity AML (phytotoxicity rating) [21]: 65; Post-emerge Herbicidal Activity XAS (phytotoxicity rating) [22]: 75; Post-emerge Herbicidal Activity SEV (phytotoxicity rating) [23]: 60; Post-emerge Herbicidal Activity ECC (phytotoxicity rating) [24]: 60; Post-emerge Herbicidal Activity SOH (phytotoxicity rating) [25]: 20; Post-emerge Herbicidal Activity DIS (phytotoxicity rating) [26]: 0; Post-emerge crop damage CORN (phytotoxicity rating) [27]: 10; Post-emerge crop damage SOY (phytotoxicity rating) [28]: 50; Post-emerge crop damage RICE (phytotoxicity rating) [29]: 70; Post-emerge crop damage WHEAT (phytotoxicity rating) [30]: 25

From patent US6770596B1, “Fused tricyclic compounds, process for their preparation, and herbicidal compositions containing them” (Ishihara Sangyo Kaisha Ltd., priority 2002, dated 2004)
